These results are taken from ChEMBL document CHEMBL4622970, “Design, Synthesis, and Evaluation of New Quinazolinone Derivatives that Inhibit Bloom Syndrome Protein (BLM) Helicase, Trigger DNA Damage at the Telomere Region, and Synergize with PARP Inhibitors” (J Med Chem, 2020).

In assay [1] the target is T1, RecQ-like DNA helicase BLM (Homo sapiens, UniProt P54132). In words: Inhibition of His-tagged BLM (642 to 1296 residues) (unknown origin) expressed in Escherichia coli BL21 (DE3) cells assessed as reduction in DNA unwinding activity using 5'-biotin-labeled forked DNA as substrate preincubated for 1 hr followed by substrate addition and measured after 1 hr by electrophoretic mobility shift assay.

Assay [2] has as its target T1, RecQ-like DNA helicase BLM. In words: Inhibition of His-tagged BLM (642 to 1296 residues) (unknown origin) expressed in Escherichia coli BL21 (DE3) cells assessed as reduction in DNA unwinding activity at <10 uM using 5'-biotin-labeled forked DNA as substrate preincubated for 1 hr followed by substrate addition and measured after 1 hr by electrophoretic mobility shift assay.

The target of assay [3] is T1, RecQ-like DNA helicase BLM. In words: Inhibition of BLM in human HCT116 cells assessed as increase in gamma-H2AX level at 2 uM measured after 24 hrs by Western blot analysis. Type of assay: cell-based. Particulars: HCT-116.
The test system of another assay is HCT-116. Description: Cytotoxicity against human HCT116 cells by MTT assay. Type of assay: functional, cell-based.
For assay [4], the target named is T1, RecQ-like DNA helicase BLM. Description: Inhibition of BLM in human HCT116 cells assessed as down regulation of HRR level at 0.5 uM measured after 24 hrs by luciferase reporter gene assay. It is filed as cell-based. Particulars: HCT-116. A general note: Reporter assays use an easily measured gene product as a stand-in for the process of interest.
The target in assay [5] is T1, RecQ-like DNA helicase BLM. In words: Binding affinity to His-tagged BLM (642 to 1296 residues) (unknown origin) expressed in Escherichia coli BL21 (DE3) cells assessed as inhibition of protein interaction with 5'-biotin-labeled forked DNA measured after 1 hr by ELISA. On the technique in general: An ELISA detects its analyte on a solid surface through an enzyme-linked reagent.

The test system of assay [6] is RecQ-like DNA helicase BLM (Homo sapiens), P54132 [I1168A]. In words: Binding affinity to His-tagged BLM I1168A mutant (unknown origin) expressed in Escherichia coli BL21 (DE3) cells by isothermal calorimetric titration assay. A general note: In ITC the heat of successive injections is recorded.
For assay [7], the target named is T1, RecQ-like DNA helicase BLM. In words: Binding affinity to BLM in human HCT116 cells cotransfected with DSB model and I-SceI plasmid assessed as reduction in recruitment of protein to DSB site in DNA at 1 uM measured after 24 hrs by chromatin immunoprecipitation assay. Type of assay: cell-based. Particulars: HCT-116.
Assay [8] deals with RecQ-like DNA helicase BLM (Homo sapiens), P54132 [H996A]. Description: Binding affinity to His-tagged BLM H996A mutant (unknown origin) expressed in Escherichia coli BL21 (DE3) cells by isothermal calorimetric titration assay.
In assay [9] the target is T1, RecQ-like DNA helicase BLM. In words: Binding affinity to wild-type His-tagged BLM (642 to 1296 residues) (unknown origin) expressed in Escherichia coli BL21 (DE3) cells by isothermal calorimetric titration assay.
Assay [10] addresses T1, RecQ-like DNA helicase BLM. In words: Inhibition of BLM in human HCT116 cells assessed as potentiation of niraparib-induced cytotoxicity at 1 to 2 uM measured after 48 hrs by MTT assay. Type of assay: cell-based. Particulars: HCT-116.
Assay [11] has as its target T1, RecQ-like DNA helicase BLM. In words: Binding affinity to BLM in human HCT116 cells cotransfected with DSB model and I-SceI plasmid assessed as reduction in recruitment of protein to DNA region distant from DSB site at 1 uM measured after 24 hrs by chromatin immunoprecipitation assay. Type of assay: cell-based. Particulars: HCT-116.
The target in assay [12] is T1, RecQ-like DNA helicase BLM. In words: Inhibition of BLM in human HCT116 cells assessed as potentiation of olaparib-induced cytotoxicity at 1 to 2 uM measured after 48 hrs by MTT assay. Type of assay: cell-based. Particulars: HCT-116.

Structures are written as SMILES. Activity calls are given as the source filed them. The rule behind the calls is not given here. Bounds are passed on as bounds.

A word on the IC50: it is the midpoint of a concentration-inhibition curve.

T1 sequence (P54132 whole entry, the tested form may be a part): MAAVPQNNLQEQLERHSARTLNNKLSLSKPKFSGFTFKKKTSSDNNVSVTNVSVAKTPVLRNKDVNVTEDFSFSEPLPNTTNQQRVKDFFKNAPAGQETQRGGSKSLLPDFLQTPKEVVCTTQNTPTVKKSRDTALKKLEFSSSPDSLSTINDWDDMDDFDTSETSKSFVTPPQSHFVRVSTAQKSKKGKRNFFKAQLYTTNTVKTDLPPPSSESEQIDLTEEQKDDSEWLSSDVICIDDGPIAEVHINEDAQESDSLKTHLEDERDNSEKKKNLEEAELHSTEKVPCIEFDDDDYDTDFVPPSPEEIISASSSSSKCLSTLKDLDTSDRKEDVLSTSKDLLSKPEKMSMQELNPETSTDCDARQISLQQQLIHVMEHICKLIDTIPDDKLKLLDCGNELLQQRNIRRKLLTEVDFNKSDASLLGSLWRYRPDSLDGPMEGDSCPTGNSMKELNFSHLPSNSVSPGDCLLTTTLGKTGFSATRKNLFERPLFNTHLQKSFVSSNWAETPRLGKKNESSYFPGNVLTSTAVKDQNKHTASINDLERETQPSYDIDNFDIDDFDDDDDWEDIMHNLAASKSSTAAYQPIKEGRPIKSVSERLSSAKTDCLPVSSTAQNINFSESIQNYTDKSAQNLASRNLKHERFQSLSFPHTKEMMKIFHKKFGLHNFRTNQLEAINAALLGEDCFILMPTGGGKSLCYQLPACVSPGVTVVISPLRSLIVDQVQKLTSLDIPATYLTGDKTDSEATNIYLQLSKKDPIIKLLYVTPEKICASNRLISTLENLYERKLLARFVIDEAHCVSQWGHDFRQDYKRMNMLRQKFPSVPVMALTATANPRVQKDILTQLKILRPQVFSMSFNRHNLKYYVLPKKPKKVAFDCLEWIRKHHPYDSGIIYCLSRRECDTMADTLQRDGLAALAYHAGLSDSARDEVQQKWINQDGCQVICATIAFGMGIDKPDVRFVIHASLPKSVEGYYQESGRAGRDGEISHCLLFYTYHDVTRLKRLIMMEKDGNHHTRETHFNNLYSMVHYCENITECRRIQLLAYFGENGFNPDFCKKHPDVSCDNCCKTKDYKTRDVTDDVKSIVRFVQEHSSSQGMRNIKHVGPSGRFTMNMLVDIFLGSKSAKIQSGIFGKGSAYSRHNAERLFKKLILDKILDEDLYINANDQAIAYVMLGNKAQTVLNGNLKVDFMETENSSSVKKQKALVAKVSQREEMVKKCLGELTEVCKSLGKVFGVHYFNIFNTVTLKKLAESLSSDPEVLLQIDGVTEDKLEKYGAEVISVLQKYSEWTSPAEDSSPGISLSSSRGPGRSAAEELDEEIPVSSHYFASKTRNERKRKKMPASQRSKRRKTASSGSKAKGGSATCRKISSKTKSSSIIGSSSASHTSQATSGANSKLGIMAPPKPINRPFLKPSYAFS
Sequence of RecQ-like DNA helicase BLM (Homo sapiens), P54132 [I1168A] (P54132 whole entry I1168A): as the sequence (P54132 whole entry, the tested form may be a part) above, with I1168A counted along it
Sequence of RecQ-like DNA helicase BLM (Homo sapiens), P54132 [H996A] (P54132 whole entry H996A, the tested form may be a part): as the sequence (P54132 whole entry, the tested form may be a part) above, with H996A counted along it

As for `CCN(CC)CCNc1cc2nc3n(c(=O)c2cc1F)CC/C3=C\c1ccc(N(C)C)cc1O`, in assay [1], the IC50 was determined as 6.4 µM.
With `CCN(CC)CCNc1cc2nc3n(c(=O)c2cc1F)CCC3Cc1ccc(C(C)(C)C)cc1` (centres undefined), in assay [2], the “Inhibition (active/not active)” value was “Active”. In assay [1], the 50% inhibitory concentration (IC50) is above 10 µM.
Turning to `CCN(CC)CCCNc1cc2nc3n(c(=O)c2cc1F)CC/C3=C\c1ccccc1`, the “Inhibition (active/not active)” value in [2] is “inactive”.
Turning to `CCN(CC)CCNc1cc2nc3c(cc2cc1F)CC/C3=C\c1ccc(C(C)C)cc1`, the “Inhibition (active/not active)” value in assay [2] is “Active”. Besides, the IC50 in [1] is above 10 µM.
Regarding `CCN(CC)CCNc1cc2nc3n(c(=O)c2cc1F)CC/C3=C\c1cccs1`, in [2], the “Inhibition (active/not active)” value is “inactive”.
Take `CCN(CC)CCNc1cc2nc3n(c(=O)c2cc1F)CC/C3=C\c1ccc(C(C)C)cc1`: the inhibition entry in [3] and in assay [4] was “Active” throughout. In [1], the half-maximal inhibitory concentration (IC50) worked out at 2 µM. For the same compound, the result in the assay on HCT-116 was Active.
As for `CCN(CC)CCCNc1c2c(nc3ccccc13)/C(=C/c1ccc(C(C)(C)C)cc1)CC2`, the “Inhibition (active/not active)” value in assay [2] is “inactive”.
Take `CCN(CC)CCCNc1cc2nc3n(c(=O)c2cc1F)CC/C3=C\c1ccc(C(C)C)cc1O`: the IC50 in [1] was determined as 4.2 µM.
On to `CCN(CC)CCNc1cc2nc3n(c(=O)c2cc1F)CCC/C3=C\c1ccc(C(C)C)cc1`, for which the “Inhibition (active/not active)” value in assay [2] is “Active”. Further, the 50% inhibitory concentration (IC50) in assay [1] was above 10 µM.
As for `CCN(CC)CCNc1cc2nc3n(c(=O)c2cc1F)CCC3Cc1ccc(N(CC)CC)cc1O` (centres undefined), the “Inhibition (active/not active)” value in assay [2] was “inactive”.
`CCc1ccc(/C=C2\CCc3c2nc2ccccc2c3NCCCN(CC)CC)cc1`: in [2], the “Inhibition (active/not active)” value is “Active”. Besides, the half-maximal inhibitory concentration (IC50) in [1] is above 10 µM.
In the case of `CCN(CC)CCNc1cc2nc3n(c(=O)c2cc1F)CC/C3=C\c1ccc(C(C)C)cc1O`, in assay [1], the IC50 worked out at 4 µM.
For the compound `CCN(CC)CCNc1cc2nc3n(c(=O)c2cc1F)CCC3Cc1ccc(C(C)C)cc1` (centres undefined), the “Inhibition (active/not active)” value in assay [2] is “Active”. In addition, in assay [1], the IC50 is above 10 µM.
On to `CCN(CC)CCCNc1cc2nc(/C=C/c3ccc(CC(C)C)cc3)[nH]c(=O)c2cc1F`, for which the IC50 in assay [1] was found to be 4.7 µM.
As to `CCOCCNc1cc2nc3n(c(=O)c2cc1F)CC/C3=C\c1ccc(C(C)C)cc1`, the “Inhibition (active/not active)” value in assay [2] was “Active”. Besides, the IC50 in assay [1] was above 10 µM.
As for `CCN(CC)CCCNc1c2c(nc3ccccc13)/C(=C/c1ccc(CC(C)C)cc1)CC2`, the “Inhibition (active/not active)” value in [2] was “Active”. Further, the IC50 in assay [1] is above 10 µM.
The corresponding values for `CC(=O)NCCNc1cc2nc3n(c(=O)c2cc1F)CC/C3=C\c1ccc(C(C)C)cc1` are “Active” and above 10 µM.
Consider `CC(C)c1ccc(/C=C2\CCn3c2nc2cc(NCCN(C)C)c(F)cc2c3=O)cc1`, for which, in assay [3], the inhibition result is “inactive”. The IC50 in assay [1] was 2.8 µM; in assay [5] it was above 20 µM. Besides, in the assay with HCT-116, the result was Active. Besides, the inhibition result in [4] is “Active”.
For the compound `CCCc1ccc(/C=C2\CCn3c2nc2cc(NCCN(CC)CC)c(F)cc2c3=O)cc1`, in [1], the half-maximal inhibitory concentration (IC50) was 3.3 µM.
The same measure, in the same setting: with `CCN(CC)CCCCNc1cc2nc3n(c(=O)c2cc1F)CC/C3=C\c1ccc(C(C)C)cc1` the figure was 1.8 µM.
Take `CCN(CC)CCCNc1cc2nc3n(c(=O)c2cc1F)CC/C3=C\c1ccc(C(C)C)cc1`: the outcome in [6], in assay [7], in assay [8], in assay [9] and in [11] was Active. Further, the IC50 in assay [1] was 1.5 µM. Besides, the inhibition result in assay [10], in assay [12] and in assay [4] was “Active” each time.
As for `CCN(CC)CCNc1cc2nc(/C=C/c3ccc(C(C)C)cc3)n(C)c(=O)c2cc1F`, the inhibition entry in assay [3] is “inactive”. In [1], the 50% inhibitory concentration (IC50) came out at 2.2 µM. In addition, in the assay with HCT-116, the result was Active. Also, the inhibition entry in assay [4] is “Active”.
As for `CCN(CC)CCNc1cc2nc3n(c(=O)c2cc1F)CC/C3=C\c1ccccc1`, the “Inhibition (active/not active)” value in assay [2] was “inactive”.
Consider `CCN(CC)CCNc1ccc2c(=O)n3c(nc2c1)/C(=C/c1ccc(C(C)C)cc1)CC3`, for which the IC50 in [1] is 1.3 µM.
Turning to `CCN(CC)CCCNc1cc2nc(/C=C/c3ccc(C(C)C)cc3)[nH]c(=O)c2cc1F`, in [2], the “Inhibition (active/not active)” value is “Active”. Besides, the half-maximal inhibitory concentration (IC50) in assay [1] is above 10 µM.
In the case of `CCN(CC)CCCNc1cc2nc(/C=C/c3ccc(C(C)C)cc3)n(CC(C)C)c(=O)c2cc1F`, the IC50 in [1] came to 3.6 µM.
Still for that read-out and setting: with `CCN(CC)CCCNc1cc2nc(/C=C/c3ccc(C(C)C)cc3)n(C)c(=O)c2cc1F` the figure was 4.7 µM.
Turning to `CC(C)c1ccc(/C=C2\CCc3c2nc2ccccc2c3NCCCN(C)C)cc1`, the “Inhibition (active/not active)” value in assay [2] was “Active”. Besides, the half-maximal inhibitory concentration (IC50) in [1] was above 10 µM.
On to `CCN(CC)CCNc1cc2nc3n(c(=O)c2cc1F)CC/C3=C\c1ccc(N(CC)CC)cc1O`, for which the inhibition entry in [3] is “inactive”. For the same compound, the half-maximal inhibitory concentration (IC50) in [1] is 2.1 µM; in assay [5] it was above 20 µM. Also, the outcome in the assay with HCT-116 was Active. For the same compound, in assay [4], the inhibition result is “Active”.
Consider `CCN(CC)CCNc1cc2nc3n(c(=O)c2cc1F)CCC3Cc1ccc(N(C)C)cc1` (centres undefined), for which the “Inhibition (active/not active)” value in assay [2] was “Active”. Further, the IC50 in assay [1] was above 10 µM.
`CCc1ccc(/C=C2\CCn3c2nc2cc(NCCN(CC)CC)c(F)cc2c3=O)cc1`: the half-maximal inhibitory concentration (IC50) in assay [1] is 3.2 µM.
On the same count and under the same terms, with `CCN(CC)CCCNc1c2c(nc3ccccc13)/C(=C/c1ccc(C(C)C)cc1)CC2` the figure was 8.7 µM.
For `CCNc1cc2nc(/C=C/c3ccc(C(C)C)cc3)n(CC)c(=O)c2cc1F`, the “Inhibition (active/not active)” value in [2] was “inactive”.
Same read-out and setting: with `CC(C)CCNc1cc2nc3n(c(=O)c2cc1F)CC/C3=C\c1ccc(C(C)C)cc1` the entry was “inactive”.
Turning to `CCN(CC)CCCNc1cc2nc(/C=C/c3ccc(C(C)C)cc3)n(CC)c(=O)c2cc1F`, the 50% inhibitory concentration (IC50) in [1] is 2.8 µM.
Take `CCN(CC)CCNc1cc2nc3n(c(=O)c2cc1F)CCC3Cc1ccc(C(C)C)cc1O` (centres undefined): the “Inhibition (active/not active)” value in assay [2] is “Active”. Moreover, the 50% inhibitory concentration (IC50) in assay [1] is above 10 µM.
Turning to `CCN(CC)CCNc1cc2nc3n(c(=O)c2cc1F)CC/C3=C\c1ccc(C(C)(C)C)cc1`, the inhibition entry in assay [3] and in assay [4] was “Active” in each case. Further, in assay [1], the IC50 was found to be 2.7 µM. The outcome with HCT-116 was Active.
On to `CCN(CC)CCNc1cc2nc3n(c(=O)c2cc1F)CC/C3=C\c1ccc(O)cc1O`, for which, in assay [2], the “Inhibition (active/not active)” value was “Active”. The IC50 in assay [1] is above 10 µM.
The corresponding values for `CCN(CC)CCNc1cc2nc3n(c(=O)c2cc1F)CC/C3=C\c1ccc(N(C)C)cc1` are “Active” and above 10 µM.
In the case of `CCN(CC)CCNc1cc2nc3n(c(=O)c2cc1F)CC/C3=C\c1ccc(OC)cc1`, the “Inhibition (active/not active)” value in [2] is “inactive”.
With `CCN(CC)CCNc1cc2nc3n(c(=O)c2cc1F)CCC3Cc1ccc(CC(C)C)cc1` (centres undefined), the “Inhibition (active/not active)” value in assay [2] is “Active”. Besides, the IC50 in [1] is above 10 µM.
In the case of `CCN(CC)CCNc1cc2nc3n(c(=O)c2cc1F)CC/C3=C\c1ccc(CC(C)C)cc1`, the IC50 in assay [1] was determined as 3.1 µM.
For `CCN(CC)CCNc1cc2nc3n(c(=O)c2cc1F)CC/C3=C\c1ccc(O)c(O)c1`, in assay [2], the “Inhibition (active/not active)” value is “Active”. In addition, the IC50 in assay [1] was above 10 µM.
